Data as given in PubChem BioAssay (NCI).
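Following 48 hours of exposure in 96-well plates, responses at five concentrations were used to interpolate endpoints linearly. TGI denotes the concentration required for complete inhibition of growth.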

How the values were obtained:
Assay in all cases: NCI tumour cell line growth inhibition, 48 h
RPMI-8226 leukemia = test system: RPMI-8226 leukemia
SF-268 CNS = test system: SF-268 CNS
SNB-19 CNS = test system: SNB-19 CNS
HT29 colon = test system: HT29 colon
OVCAR-5 ovarian = test system: OVCAR-5 ovarian
MDA-MB-435 = test system: MDA-MB-435
MDA-MB-231 breast = test system: MDA-MB-231 breast
ACHN renal = test system: ACHN renal
TK-10 renal = test system: TK-10 renal
OVCAR-4 ovarian = test system: OVCAR-4 ovarian
HL-60(TB) leukemia = test system: HL-60(TB) leukemia
SK-MEL-5 melanoma = test system: SK-MEL-5 melanoma
MDA-N = test system: MDA-N
SR leukemia = test system: SR leukemia
RXF 393 renal = test system: RXF 393 renal
IGROV1 ovarian = test system: IGROV1 ovarian
SK-OV-3 ovarian = test system: SK-OV-3 ovarian
NCI-H522 lung = test system: NCI-H522 lung
SF-539 CNS = test system: SF-539 CNS
786-0 renal = test system: 786-0 renal
UACC-257 melanoma = test system: UACC-257 melanoma
HCT-15 colon = test system: HCT-15 colon
K-562 leukemia = test system: K-562 leukemia
CAKI-1 renal = test system: CAKI-1 renal
MCF7 breast = test system: MCF7 breast
HCT-116 colon = test system: HCT-116 colon
KM12 colon = test system: KM12 colon
LOX IMVI melanoma = test system: LOX IMVI melanoma
EKVX NSCLC = test system: EKVX NSCLC
COLO 205 colon = test system: COLO 205 colon
MOLT-4 leukemia = test system: MOLT-4 leukemia
SN12C renal = test system: SN12C renal
NCI-H226 lung = test system: NCI-H226 lung
PC-3 prostate = test system: PC-3 prostate
U251 CNS = test system: U251 CNS
T-47D breast = test system: T-47D breast
MALME-3M melanoma = test system: MALME-3M melanoma
NCI-H23 lung = test system: NCI-H23 lung
SK-MEL-28 melanoma = test system: SK-MEL-28 melanoma
CCRF-CEM leukemia = test system: CCRF-CEM leukemia
UACC-62 melanoma = test system: UACC-62 melanoma
SW-620 colon = test system: SW-620 colon
HS 578T breast = test system: HS 578T breast
OVCAR-8 ovarian = test system: OVCAR-8 ovarian
A498 renal = test system: A498 renal
BT-549 breast = test system: BT-549 breast
HOP-62 NSCLC = test system: HOP-62 NSCLC
M14 melanoma = test system: M14 melanoma
A549 NSCLC = test system: A549 NSCLC
SK-MEL-2 melanoma = test system: SK-MEL-2 melanoma
HOP-92 NSCLC = test system: HOP-92 NSCLC
OVCAR-3 ovarian = test system: OVCAR-3 ovarian
SF-295 CNS = test system: SF-295 CNS
NCI/ADR-RES ovarian = test system: NCI/ADR-RES ovarian
DU-145 prostate = test system: DU-145 prostate
SNB-75 CNS = test system: SNB-75 CNS
NCI-H460 lung = test system: NCI-H460 lung
UO-31 renal = test system: UO-31 renal
HCC-2998 colon = test system: HCC-2998 colon

Cc1ccc(CSC(N)=Nc2ccccc2)cc1C
TGI (RPMI-8226 leukemia): 75.9 µM
TGI (SF-268 CNS): 36.7 µM
TGI (SNB-19 CNS): 65.9 µM
TGI (HT29 colon): 40.1 µM
TGI (OVCAR-5 ovarian): 56.4 µM
TGI (MDA-MB-435): 30.7 µM
TGI (MDA-MB-231 breast): 33.6 µM
TGI (ACHN renal): > 100 µM
TGI (TK-10 renal): 86.7 µM
TGI (OVCAR-4 ovarian): 36.5 µM
TGI (HL-60(TB) leukemia): 62.9 µM
TGI (SK-MEL-5 melanoma): 34.9 µM
TGI (MDA-N): 43.8 µM
TGI (SR leukemia): 55.8 µM
TGI (RXF 393 renal): 33.4 µM
TGI (IGROV1 ovarian): 57.5 µM
TGI (SK-OV-3 ovarian): 54.7 µM
TGI (NCI-H522 lung): 35.4 µM
TGI (SF-539 CNS): 53.1 µM
TGI (786-0 renal): 44.7 µM
TGI (UACC-257 melanoma): 36.9 µM
TGI (HCT-15 colon): 60.1 µM
TGI (K-562 leukemia): 61.7 µM
TGI (CAKI-1 renal): 60.9 µM
TGI (MCF7 breast): 37.9 µM
TGI (HCT-116 colon): 32.1 µM
TGI (KM12 colon): 39.7 µM
TGI (LOX IMVI melanoma): 36.2 µM
TGI (EKVX NSCLC): 75.8 µM
TGI (COLO 205 colon): 41.5 µM
TGI (MOLT-4 leukemia): 75.4 µM
TGI (SN12C renal): 38.5 µM
TGI (NCI-H226 lung): 43 µM
TGI (PC-3 prostate): 60.5 µM
TGI (U251 CNS): 31.6 µM
TGI (T-47D breast): 45 µM
TGI (MALME-3M melanoma): 34.2 µM
TGI (NCI-H23 lung): 57 µM
TGI (SK-MEL-28 melanoma): 45.1 µM
TGI (CCRF-CEM leukemia): > 100 µM
TGI (UACC-62 melanoma): 26.6 µM
TGI (SW-620 colon): > 100 µM
TGI (HS 578T breast): 49.1 µM
TGI (OVCAR-8 ovarian): 45.9 µM
TGI (A498 renal): 33.2 µM
TGI (BT-549 breast): 50.8 µM
TGI (HOP-62 NSCLC): 49.1 µM
TGI (M14 melanoma): 41.2 µM
TGI (A549 NSCLC): > 100 µM
TGI (SK-MEL-2 melanoma): 33.6 µM
TGI (HOP-92 NSCLC): 45.7 µM
TGI (OVCAR-3 ovarian): 44 µM
TGI (SF-295 CNS): > 100 µM
TGI (NCI/ADR-RES ovarian): 52.8 µM
TGI (DU-145 prostate): 55.4 µM
TGI (SNB-75 CNS): 63.9 µM
TGI (NCI-H460 lung): 39 µM

O=[N+]([O-])c1c(F)c(F)c2c(c1F)N(CCCCCl)c1ccccc1S2
TGI (RPMI-8226 leukemia): 20.8 µM
TGI (SF-268 CNS): 18.3 µM
TGI (SNB-19 CNS): 19.5 µM
TGI (HT29 colon): 6.74 µM
TGI (OVCAR-5 ovarian): 33.6 µM
TGI (MDA-MB-435): 20.2 µM
TGI (MDA-MB-231 breast): 21.9 µM
TGI (ACHN renal): 30.4 µM
TGI (TK-10 renal): 32.5 µM
TGI (OVCAR-4 ovarian): 21.2 µM
TGI (HL-60(TB) leukemia): 5.7 µM
TGI (UO-31 renal): 30.5 µM
TGI (SK-MEL-5 melanoma): 32.7 µM
TGI (MDA-N): 28.9 µM
TGI (SR leukemia): > 100 µM
TGI (RXF 393 renal): 27.4 µM
TGI (IGROV1 ovarian): 5.36 µM
TGI (SK-OV-3 ovarian): 34 µM
TGI (NCI-H522 lung): 12.3 µM
TGI (SF-539 CNS): 31.9 µM
TGI (786-0 renal): 23.8 µM
TGI (UACC-257 melanoma): 27.5 µM
TGI (HCT-15 colon): 3.31 µM
TGI (K-562 leukemia): 4.74 µM
TGI (CAKI-1 renal): 19.3 µM
TGI (MCF7 breast): 11.9 µM
TGI (HCT-116 colon): 11.2 µM
TGI (KM12 colon): 23.5 µM
TGI (LOX IMVI melanoma): 3.06 µM
TGI (EKVX NSCLC): 41.3 µM
TGI (COLO 205 colon): 27.5 µM
TGI (MOLT-4 leukemia): > 21.6 µM
TGI (SN12C renal): 20.2 µM
TGI (NCI-H226 lung): 33.1 µM
TGI (PC-3 prostate): 12.7 µM
TGI (U251 CNS): 25.3 µM
TGI (T-47D breast): 27.7 µM
TGI (MALME-3M melanoma): 31.4 µM
TGI (NCI-H23 lung): 21.7 µM
TGI (SK-MEL-28 melanoma): 10.9 µM
TGI (CCRF-CEM leukemia): 6.35 µM
TGI (UACC-62 melanoma): 26.9 µM
TGI (SW-620 colon): 8.78 µM
TGI (HS 578T breast): 74.4 µM
TGI (OVCAR-8 ovarian): 11.3 µM
TGI (A498 renal): 21.1 µM
TGI (BT-549 breast): 28 µM
TGI (HOP-62 NSCLC): 38.3 µM
TGI (M14 melanoma): 18.2 µM
TGI (A549 NSCLC): 31.8 µM
TGI (SK-MEL-2 melanoma): 8.18 µM
TGI (HOP-92 NSCLC): 39 µM
TGI (HCC-2998 colon): 8.48 µM
TGI (OVCAR-3 ovarian): 19.5 µM
TGI (SF-295 CNS): 31.1 µM
TGI (NCI/ADR-RES ovarian): 37.5 µM
TGI (DU-145 prostate): 26.1 µM
TGI (SNB-75 CNS): 17.2 µM
TGI (NCI-H460 lung): 9.91 µM
